Like-named read-outs stand apart in the source and are kept apart here.
Legend:
thrombin = biological target: T1, thrombin (Homo sapiens, UniProt P00734); test: Thrombin enzymatic assay (selectivity screening); assay type: biochemical
T1 construct: uPA, Factor Xa, thrombin, plasmin and trypsin (Sigma, USA); purchased Sigma, USA
Text: (§1) Purified recombinant matriptase was used in a fluorescence-based screening assay using Gln-Ala-Arg peptide as a substrate. In this assay the cleavage of AMC from Boc-Gln-Ala-Arg-7-amido-4 methylcoumarin hydrochloride (Boc-Gln-Ala-Arg-AMC) (Sigma, USA) was monitored by measuring the increase in fluorescence intensity of AMC released upon proteolytic cleavage at 480 nm (kex=360 nm). Similarly, enzymatic assays in fluorimetric or colorimetric format for uPA, Factor Xa, thrombin, plasmin and trypsin (Sigma, USA) were established using substrates pyroGlu-Gly-Arg-pNA.HCl, Boc-Gln-Ala-Arg-AMC, CH3OCO-D-CHA-Gly-Arg-PNA.AcoH, Pyro Glu-Phe-Lys—pNA.HCl and Boc-Gln-Ala-Arg-AMC, respectively.

[1] = biological target: T2, Purified recombinant matriptase (Homo sapiens, UniProt Q9Y5Y6); test: Matriptase fluorescence-based enzymatic assay (Boc-Gln-Ala-Arg-AMC cleavage); assay type: biochemical
T2 sequence (Q9Y5Y6 1-855): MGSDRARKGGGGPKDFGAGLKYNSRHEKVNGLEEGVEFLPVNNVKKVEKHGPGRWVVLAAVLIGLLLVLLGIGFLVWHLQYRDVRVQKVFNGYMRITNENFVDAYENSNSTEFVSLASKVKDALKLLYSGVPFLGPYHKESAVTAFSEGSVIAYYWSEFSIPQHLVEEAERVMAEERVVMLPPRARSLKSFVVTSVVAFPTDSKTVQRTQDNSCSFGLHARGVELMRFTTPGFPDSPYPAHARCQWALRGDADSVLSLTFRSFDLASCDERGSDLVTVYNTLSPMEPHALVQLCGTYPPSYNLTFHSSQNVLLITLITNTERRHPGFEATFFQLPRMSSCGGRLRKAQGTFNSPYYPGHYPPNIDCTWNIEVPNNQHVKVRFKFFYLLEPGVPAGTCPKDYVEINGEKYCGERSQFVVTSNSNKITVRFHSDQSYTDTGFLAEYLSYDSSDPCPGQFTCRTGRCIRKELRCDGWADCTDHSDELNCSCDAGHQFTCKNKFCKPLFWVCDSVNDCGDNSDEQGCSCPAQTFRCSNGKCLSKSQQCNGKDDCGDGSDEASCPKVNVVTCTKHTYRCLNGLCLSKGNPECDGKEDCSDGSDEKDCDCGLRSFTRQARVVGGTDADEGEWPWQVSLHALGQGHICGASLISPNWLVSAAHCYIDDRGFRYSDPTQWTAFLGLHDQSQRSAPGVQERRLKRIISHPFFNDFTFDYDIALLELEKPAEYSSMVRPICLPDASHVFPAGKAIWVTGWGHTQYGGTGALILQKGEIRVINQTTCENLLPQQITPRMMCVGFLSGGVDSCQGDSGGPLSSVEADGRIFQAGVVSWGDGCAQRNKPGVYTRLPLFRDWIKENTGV
Text: as §1

plasmin = biological target: T3, plasmin (Homo sapiens, UniProt P00747); test: Plasmin enzymatic assay (selectivity screening); assay type: biochemical
T3 construct: uPA, Factor Xa, thrombin, plasmin and trypsin (Sigma, USA); purchased Sigma, USA
Text: as §1

Factor Xa = biological target: T4, Factor Xa (Homo sapiens, UniProt P00742); test: Factor Xa enzymatic assay (selectivity screening); assay type: biochemical
T4 construct: uPA, Factor Xa, thrombin, plasmin and trypsin (Sigma, USA); purchased Sigma, USA
Text: as §1

trypsin = test: Trypsin enzymatic assay (selectivity screening); assay type: biochemical; conditions: % Inhibition at 5 μM
Text: as §1

DU145 cells [2] = test: Soft agar colony formation assay; assay type: cell-based; conditions: Homo sapiens, DU-145, 504 h, about three weeks, read-out: EC50 for inhibition of soft agar colony formation
Description: Soft agar colony formation assays were performed to measure the long-term survival and anchorage-independent growth capacity of tumor cells. DU145 cells were seeded in 0.7% nutrient agar with the test compound on an underlay of 1.4% nutrient agar in a six well plate. On the day following cell seeding, liquid cell culture medium containing the compound was added to the well to prevent the agar from drying out and was changed regularly till the completion of the experiment. The cells were allowed to form colonies for a period of about three weeks following which the colonies were stained with 0.005% solution of crystal violet in 25% methanol. The colonies were counted under a dissecting microscope.

uPA = biological target: T5, uPA (Homo sapiens, UniProt P00749); test: uPA enzymatic assay (selectivity screening); assay type: biochemical
T5 construct: purchased Sigma, USA
Text: as §1

DU145 cells [3] = test: Cell invasion assay (matrigel transwell); assay type: cell-based; conditions: Homo sapiens, DU-145, 48 hours
Description: Cell invasion assays were done for quantitating the degree to which invasive cells penetrate a barrier essentially as in migration assay but with the use of matrigel consisting of basement membrane components in the transwell inserts and incubating for 48 hours. The barrier used was matrigel. This was followed by fixing and staining of the transwell insert with 0.5% crystal violet in 25% methanol in order to visualize cells migrated.

DU145 cells [4] = test: Migration assay in transwell chambers; assay type: cell-based; conditions: Homo sapiens, DU-145, 24 hours
Description: Migration assays were performed to determine the effect of matriptase inhibitors on cell motility. Cells were seeded with 10 μM test compound into transwell chambers and allowed to migrate for 24 hours using a combination of 10% FBS and 5 μg/ml fibronectin as chemoattractant.

DU145 cells [5] = test: Cytotoxicity, Calcein AM assay, DU145; assay type: cell-based; conditions: Homo sapiens, DU-145, 96 h, four days of incubation, read-out: Cell survival at 10 μM (%)
Description: Cytotoxicity of the compounds was tested in cell lines or primary cells using Calcein AM assay. This assay measures cell viability by quantitation of cleaved fluorescent product of a cell permeable substrate that is retained in the cytoplasm of cells with uncompromised cytoplasmic membrane integrity. The cells were seeded into 96-well plate and allowed to adhere for a day followed by addition of compound at several different concentrations. After four days of incubation with the compound, media was removed from the cells followed by addition of PBS and addition of Calcein AM reagent at 1 μM final concentration. The cells were then allowed to incubate at 37° C. for half an hour followed by reading on the fluorimeter. Percent viability was calculated based on fluorescence value obtained at 485/520 nm with cut off at 495 nm.

[6] = Table 1, read-out: Matriptase Inhibition IC50
[7] = Table 2, read-out: Matriptase IC50

T3 sequence (P00747 581-810 limits assumed, species assumed): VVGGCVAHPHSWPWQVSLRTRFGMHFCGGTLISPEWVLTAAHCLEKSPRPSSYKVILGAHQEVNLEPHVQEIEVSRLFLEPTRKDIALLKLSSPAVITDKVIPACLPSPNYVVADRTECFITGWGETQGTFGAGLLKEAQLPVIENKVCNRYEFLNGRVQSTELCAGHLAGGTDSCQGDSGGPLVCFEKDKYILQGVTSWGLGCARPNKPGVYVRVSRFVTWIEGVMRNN
T3 sequence (P00747 97-580 partner limits assumed, species assumed): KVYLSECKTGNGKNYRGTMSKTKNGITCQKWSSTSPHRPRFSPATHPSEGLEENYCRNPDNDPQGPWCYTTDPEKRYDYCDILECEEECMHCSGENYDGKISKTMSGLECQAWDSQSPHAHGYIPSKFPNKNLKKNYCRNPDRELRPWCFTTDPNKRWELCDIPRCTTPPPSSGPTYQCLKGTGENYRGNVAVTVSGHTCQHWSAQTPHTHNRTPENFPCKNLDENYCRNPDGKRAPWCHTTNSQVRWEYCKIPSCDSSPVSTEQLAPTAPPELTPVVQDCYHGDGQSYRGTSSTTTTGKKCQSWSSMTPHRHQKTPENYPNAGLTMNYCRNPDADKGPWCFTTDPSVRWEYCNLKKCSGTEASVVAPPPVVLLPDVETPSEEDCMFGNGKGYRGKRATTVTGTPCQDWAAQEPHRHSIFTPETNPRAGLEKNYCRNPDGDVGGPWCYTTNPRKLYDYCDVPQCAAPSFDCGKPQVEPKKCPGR
T4 sequence (P00742 235-488 limits assumed): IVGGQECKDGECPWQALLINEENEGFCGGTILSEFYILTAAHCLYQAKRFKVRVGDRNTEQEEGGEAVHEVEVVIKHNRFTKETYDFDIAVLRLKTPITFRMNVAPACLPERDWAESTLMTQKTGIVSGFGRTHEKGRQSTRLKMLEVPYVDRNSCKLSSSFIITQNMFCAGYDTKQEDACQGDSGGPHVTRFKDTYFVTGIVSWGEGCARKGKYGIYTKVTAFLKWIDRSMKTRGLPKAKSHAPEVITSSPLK
T4 sequence (P00742 41-179 partner limits assumed): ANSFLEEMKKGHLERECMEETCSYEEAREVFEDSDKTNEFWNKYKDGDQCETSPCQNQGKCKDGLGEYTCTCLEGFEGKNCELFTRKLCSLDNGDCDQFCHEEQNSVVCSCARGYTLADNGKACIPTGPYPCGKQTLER

Row | Structure (SMILES) | inhibition at 5 µM (thrombin) [%] | IC50 [1] [nM] | inhibition at 5 µM (plasmin) [%] | inhibition at 5 µM (Factor Xa) [%] | Trypsin Inhibition (%) (trypsin) | EC50 (DU145 cells [2]) [nM] | inhibition at 5 µM (uPA) [%] | IC50 [1, 6] [nM] | IC50 [1, 7] [nM] | inhibition at 10 µM (DU145 cells [3]) [%] | inhibition at 10 µM (DU145 cells [4]) [%] | viability at 10 µM (DU145 cells [5]) [%] | Thrombin Inhibition (%) (thrombin; % Inhibition at 5 μM) | Plasmin Inhibition (%) (plasmin; % Inhibition at 5 μM) | Factor Xa Inhibition (%) (Factor Xa; % Inhibition at 5 μM) | uPA Inhibition (%) (uPA; % Inhibition at 5 μM)
1 | N=C(N)c1ccc(Oc2cc(C(=O)NC3CCC(N)CC3)cc(Oc3ccc(C(=N)N)cc3)n2)cc1 (centres unmarked) [Example 13, N-(4-Amino-cyclohexyl)-2,6-bis-(4-carbamimidoyl-phenoxy)-isonicotinamide] | 28 | 20 | 33 | 84 | 92 | 500 | 13 | – | – | – | – | – | – | – | – | –
2 | N=C(N)c1ccc(Oc2cc(OCc3cccc(CN)c3)cc(C(=O)NC3CCC(N)CC3)c2)cc1 (centres unmarked) [Example 47, N-(4-Aminocyclohexyl)-3-(3-aminomethylbenzyloxy)-5-(4-carbamimidoylphenoxy)benzamide] | 3 | – | 18 | 71 | – | 900 | -1 | 38 | 38 | 63 | 39 | 100 | – | – | – | –
3 | N=C(N)c1ccc(Oc2cc(OCc3ccc(Br)cc3)cc(C(=O)NC3CCC(N)CC3)c2)cc1 (centres unmarked) [Example 51, N-(4-Aminocyclohexyl)-3-(4-bromobenzyloxy)-5-(4-carbamimidoylphenoxy)benzamide] | 41 | – | 25 | 52 | – | 700 | 23 | 379 | 122 | 61 | -4 | 93 | – | – | – | –
4 | N=C(N)c1ccc(COc2cc(Oc3ccc(C(=N)N)cc3)cc(C(=O)N3CCC(CCN)CC3)c2)cc1 [Example 58, 2-{1-[3-(4-carbamimidoyl-benzyloxy)-5-(4-carbamimidoyl-phenoxy)benzoyl]-piperidin-4-yl}ethylamine] | 70 | – | 42 | 73 | – | 100 | 7 | 35 | 35 | 91 | 63 | 100 | – | – | – | –
5 | Cc1cc(Oc2cc(Oc3ccc(C(=N)N)cc3)cc(C(=O)NC3CCC(N)CC3)c2)ccc1C(=N)N (centres unmarked) [Example 74, N-(4-Aminocyclohexyl)-3-(4-carbamimidoyl-3-methylphenoxy)-5-(4-carbamimidoylphenoxy)benzamide] | 33 | – | 10 | 86 | 28 | – | 11 | 13.2 | 13 | 45 | 18 | 95 | – | – | – | –
6 | N=C(N)c1cccc(COc2cc(NC(=O)C3CCC(N)CC3)cc(OCc3cccc(C(=N)N)c3)c2)c1 (centres unmarked) [Example 119, 4-Amino-cyclohexanecarboxylic acid[3,5-bis-(3-carbamimidoyl-benzyloxy)-phenyl]-amide] | – | – | – | – | 77 | – | – | 7 | – | – | – | – | 47 | 30 | 97 | 14

Source: patent US8722930B2, “Protease inhibitors” (Orion Corporation, priority 2009, dated 2014)
